The source made the active and inactive calls.
Experiments:
[1] = biological target: D(1B) dopamine receptor (Homo sapiens) (UniProt P21918); conditions: Compound concentration 10.0 uM
[2] = biological target: T1, Bromodomain-containing protein 2 (Homo sapiens, UniProt P25440); test: BRD2(1,2) DiscoverX BROMOscan
[3] = biological target: 5-hydroxytryptamine receptor 7 (Homo sapiens) (UniProt P34969); conditions: Compound concentration 10.0 uM
[4] = biological target: 5-hydroxytryptamine receptor 1B (Homo sapiens, UniProt P28222); conditions: Compound concentration 10.0 uM
[5] = biological target: ATPase family AAA domain-containing protein 2 (Homo sapiens, UniProt Q6PL18); test: ATAD2A DiscoverX BROMOscan
[6] = biological target: T2, Bromodomain-containing protein 3 (Homo sapiens, UniProt Q15059); test: BRD3(1,2) DiscoverX BROMOscan
Target sequence in this assay (Q15059 whole entry): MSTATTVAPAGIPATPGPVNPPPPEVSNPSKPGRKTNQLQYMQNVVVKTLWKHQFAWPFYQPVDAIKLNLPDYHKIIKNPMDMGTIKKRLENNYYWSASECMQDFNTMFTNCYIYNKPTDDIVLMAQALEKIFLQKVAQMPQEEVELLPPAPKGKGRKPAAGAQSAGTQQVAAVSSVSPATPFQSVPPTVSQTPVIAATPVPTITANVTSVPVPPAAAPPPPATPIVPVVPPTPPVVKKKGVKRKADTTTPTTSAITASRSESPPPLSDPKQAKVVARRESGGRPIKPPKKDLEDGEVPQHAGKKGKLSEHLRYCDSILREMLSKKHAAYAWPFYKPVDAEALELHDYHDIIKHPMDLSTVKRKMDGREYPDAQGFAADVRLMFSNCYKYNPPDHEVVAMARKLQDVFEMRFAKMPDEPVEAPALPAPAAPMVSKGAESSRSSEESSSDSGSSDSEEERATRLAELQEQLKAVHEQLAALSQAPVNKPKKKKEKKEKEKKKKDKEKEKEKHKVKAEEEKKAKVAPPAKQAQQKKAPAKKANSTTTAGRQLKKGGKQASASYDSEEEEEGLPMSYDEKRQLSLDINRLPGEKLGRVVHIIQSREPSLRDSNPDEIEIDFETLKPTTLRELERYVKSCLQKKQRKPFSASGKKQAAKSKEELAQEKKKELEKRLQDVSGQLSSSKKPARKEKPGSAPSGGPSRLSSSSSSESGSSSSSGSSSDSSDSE

[7] = biological target: T3, Protein polybromo-1 (Homo sapiens, UniProt Q86U86); test: PBRM1(5) DiscoverX BROMOscan
[8] = biological target: Muscarinic acetylcholine receptor M3 (Homo sapiens) (UniProt P20309); conditions: Compound concentration 10.0 uM
[9] = biological target: T2, Bromodomain-containing protein 3; test: BET mutant TR-FRETassay (BRD3 BD1)
[10] = biological target: D(3) dopamine receptor (Homo sapiens) (UniProt P35462); conditions: Compound concentration 10.0 uM
[11] = biological target: T4, Bromodomain testis-specific protein (Homo sapiens, UniProt Q58F21); test: BRDT(1,2) DiscoverX BROMOscan
[12] = biological target: Bromodomain-containing protein 9 (Homo sapiens, UniProt Q9H8M2); test: BRD9 DiscoverX BROMOscan
[13] = biological target: Kappa-type opioid receptor (Homo sapiens, UniProt P41145); conditions: Compound concentration 10.0 uM
[14] = biological target: C-C motif chemokine 2 (Homo sapiens, UniProt P13500); test: In vitro inhibition of MCP-1 in Lipopolysaccharide-stimulated human whole blood; assay type: tissue-based
[15] = biological target: SWI/SNF-related matrix-associated actin-dependent regulator of chromatin subfamily A member 2 (Homo sapiens, UniProt P51531); test: SMARCA2 DiscoverX BROMOscan
[16] = biological target: T4, Bromodomain testis-specific protein; test: BRDT BD2 Bromoscan (DiscoverX)
[17] = biological target: Histone acetyltransferase KAT2A (Homo sapiens, UniProt Q92830); test: GCN5L2 DiscoverX BROMOscan
[18] = biological target: 5-hydroxytryptamine receptor 2C (Homo sapiens) (UniProt P28335); conditions: Compound concentration 10.0 uM
[19] = biological target: D(2) dopamine receptor (Homo sapiens, UniProt P14416); conditions: Compound concentration 10.0 uM
[20] = biological target: Sodium-dependent noradrenaline transporter (Homo sapiens) (UniProt P23975); conditions: Compound concentration 10.0 uM
[21] = biological target: Alpha-1D adrenergic receptor (Homo sapiens) (UniProt P25100); conditions: Compound concentration 10.0 uM
[22] = biological target: T4, Bromodomain testis-specific protein; test: TR-FRET assay (BRDT BD1)
[23] = biological target: Nucleosome-remodeling factor subunit BPTF (Homo sapiens, UniProt Q12830); test: FALZ DiscoverX BROMOscan
[24] = biological target: Sigma non-opioid intracellular receptor 1 (Homo sapiens) (UniProt Q99720); conditions: Compound concentration 10.0 uM
[25] = biological target: T3, Protein polybromo-1; test: PBRM1(2) DiscoverX BROMOscan
[26] = biological target: T2, Bromodomain-containing protein 3; test: BRD3(1) DiscoverX BROMOscan
Target sequence in this assay (Q15059 whole entry): as above

[27] = biological target: T5, Bromodomain-containing protein 8 (Homo sapiens, UniProt Q9H0E9); test: BRD8(2) DiscoverX BROMOscan
[28] = biological target: Chromatin remodeling regulator CECR2 (Homo sapiens, UniProt Q9BXF3); test: CECR2 DiscoverX BROMOscan
[29] = biological target: Sigma intracellular receptor 2 (Homo sapiens) (UniProt Q5BJF2); conditions: Compound concentration 10.0 uM
[30] = biological target: T2, Bromodomain-containing protein 3; test: TR-FRET assay (BRD3 BD2)
Target sequence in this assay (Q15059 whole entry): as above

[31] = biological target: Transcription intermediary factor 1-alpha (Homo sapiens, UniProt O15164); test: TRIM24(PHD,Bromo.) DiscoverX BROMOscan
[32] = biological target: T4, Bromodomain testis-specific protein; test: BRDT(1) DiscoverX BROMOscan
[33] = biological target: Histamine H4 receptor (Homo sapiens) (UniProt Q9H3N8); conditions: Compound concentration 10.0 uM
[34] = biological target: Bromodomain adjacent to zinc finger domain protein 2A (Homo sapiens, UniProt Q9UIF9); test: BAZ2A DiscoverX BROMOscan
[35] = biological target: Bromodomain and PHD finger-containing protein 3 (Homo sapiens, UniProt Q9ULD4); test: BRPF3 DiscoverX BROMOscan
[36] = biological target: 5-hydroxytryptamine receptor 1A (Homo sapiens) (UniProt P08908); conditions: Compound concentration 10.0 uM
[37] = biological target: Beta-3 adrenergic receptor (Homo sapiens) (UniProt P13945); conditions: Compound concentration 10.0 uM
[38] = biological target: Bromodomain and WD repeat-containing protein 1 (Homo sapiens, UniProt Q9NSI6); test: WDR9(2) DiscoverX BROMOscan
[39] = biological target: Alpha-1B adrenergic receptor (Homo sapiens) (UniProt P35368); conditions: Compound concentration 10.0 uM
[40] = biological target: T5, Bromodomain-containing protein 8; test: BRD8(1) DiscoverX BROMOscan
[41] = biological target: 5-hydroxytryptamine receptor 3A (Homo sapiens) (UniProt P46098); conditions: Compound concentration 10.0 uM
[42] = biological target: Delta-type opioid receptor (Homo sapiens) (UniProt P41143); conditions: Compound concentration 10.0 uM
[43] = biological target: Sodium-dependent dopamine transporter (Homo sapiens) (UniProt Q01959); conditions: Compound concentration 10.0 uM
[44] = biological target: T1, Bromodomain-containing protein 2; test: TR-FRET assay (BRD2 BD1)
[45] = biological target: T2, Bromodomain-containing protein 3; test: BRD3 BD1 Bromoscan (DiscoverX)
Target sequence in this assay (Q15059 whole entry): as above

[46] = biological target: Alpha-2C adrenergic receptor (Homo sapiens) (UniProt P18825); conditions: Compound concentration 10.0 uM
[47] = biological target: Bromodomain-containing protein 7 (Homo sapiens, UniProt Q9NPI1); test: BRD7 DiscoverX BROMOscan
[48] = biological target: Histone acetyltransferase KAT2B (Homo sapiens, UniProt Q92831); test: PCAF DiscoverX BROMOscan
[49] = biological target: Beta-1 adrenergic receptor (Homo sapiens) (UniProt P08588); conditions: Compound concentration 10.0 uM
[50] = biological target: Bromodomain adjacent to zinc finger domain protein 2B (Homo sapiens, UniProt Q9UIF8); test: BAZ2B DiscoverX BROMOscan
[51] = biological target: Beta-2 adrenergic receptor (Homo sapiens, UniProt P07550); conditions: Compound concentration 10.0 uM
[52] = biological target: Muscarinic acetylcholine receptor M2 (Homo sapiens) (UniProt P08172); conditions: Compound concentration 10.0 uM
[53] = biological target: 5-hydroxytryptamine receptor 2B (Homo sapiens) (UniProt P41595); conditions: Compound concentration 10.0 uM

T3 sequence (Q86U86 whole entry): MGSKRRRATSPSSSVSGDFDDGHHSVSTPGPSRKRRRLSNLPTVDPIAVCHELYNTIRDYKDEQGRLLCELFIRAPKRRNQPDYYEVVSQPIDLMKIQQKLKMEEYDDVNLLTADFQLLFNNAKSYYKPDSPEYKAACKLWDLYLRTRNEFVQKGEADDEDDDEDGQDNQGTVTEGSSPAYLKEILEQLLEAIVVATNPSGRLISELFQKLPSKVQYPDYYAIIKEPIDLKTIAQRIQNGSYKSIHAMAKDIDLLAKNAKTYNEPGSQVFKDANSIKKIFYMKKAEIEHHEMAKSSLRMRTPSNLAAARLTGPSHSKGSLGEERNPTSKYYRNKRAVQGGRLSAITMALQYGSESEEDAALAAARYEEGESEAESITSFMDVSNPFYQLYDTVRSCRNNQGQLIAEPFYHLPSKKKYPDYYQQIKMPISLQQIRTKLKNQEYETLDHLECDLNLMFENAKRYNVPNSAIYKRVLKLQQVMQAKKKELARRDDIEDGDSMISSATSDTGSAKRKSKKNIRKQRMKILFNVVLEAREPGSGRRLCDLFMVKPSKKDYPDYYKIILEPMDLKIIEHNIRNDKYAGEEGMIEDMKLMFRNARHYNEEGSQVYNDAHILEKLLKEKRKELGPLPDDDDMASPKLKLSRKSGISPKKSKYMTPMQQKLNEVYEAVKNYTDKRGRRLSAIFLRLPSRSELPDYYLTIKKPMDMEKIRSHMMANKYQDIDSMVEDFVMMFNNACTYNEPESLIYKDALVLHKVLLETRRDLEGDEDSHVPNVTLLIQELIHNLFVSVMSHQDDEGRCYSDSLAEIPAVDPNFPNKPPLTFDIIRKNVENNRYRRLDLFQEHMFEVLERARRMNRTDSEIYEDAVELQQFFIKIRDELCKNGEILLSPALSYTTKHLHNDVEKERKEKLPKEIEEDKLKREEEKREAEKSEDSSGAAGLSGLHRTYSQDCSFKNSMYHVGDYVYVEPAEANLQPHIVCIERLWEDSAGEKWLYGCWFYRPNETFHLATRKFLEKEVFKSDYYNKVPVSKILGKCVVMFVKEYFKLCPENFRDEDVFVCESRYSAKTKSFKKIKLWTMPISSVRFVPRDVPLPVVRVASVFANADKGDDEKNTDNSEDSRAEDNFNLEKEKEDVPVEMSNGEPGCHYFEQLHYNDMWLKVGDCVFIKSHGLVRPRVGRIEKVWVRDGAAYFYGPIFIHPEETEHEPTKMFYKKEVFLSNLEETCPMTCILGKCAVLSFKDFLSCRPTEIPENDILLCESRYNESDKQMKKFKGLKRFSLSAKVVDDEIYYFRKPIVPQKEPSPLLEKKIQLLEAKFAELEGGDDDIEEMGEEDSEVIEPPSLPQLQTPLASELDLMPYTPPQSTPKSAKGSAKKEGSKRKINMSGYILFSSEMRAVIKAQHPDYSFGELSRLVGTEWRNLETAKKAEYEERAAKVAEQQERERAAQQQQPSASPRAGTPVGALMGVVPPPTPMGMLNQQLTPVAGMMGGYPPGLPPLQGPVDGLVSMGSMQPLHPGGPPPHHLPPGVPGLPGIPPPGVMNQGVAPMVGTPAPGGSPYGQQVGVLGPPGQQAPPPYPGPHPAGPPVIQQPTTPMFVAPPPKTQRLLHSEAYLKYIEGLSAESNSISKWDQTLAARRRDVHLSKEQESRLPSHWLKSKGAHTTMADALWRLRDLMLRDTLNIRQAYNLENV
T1 sequence (P25440 whole entry): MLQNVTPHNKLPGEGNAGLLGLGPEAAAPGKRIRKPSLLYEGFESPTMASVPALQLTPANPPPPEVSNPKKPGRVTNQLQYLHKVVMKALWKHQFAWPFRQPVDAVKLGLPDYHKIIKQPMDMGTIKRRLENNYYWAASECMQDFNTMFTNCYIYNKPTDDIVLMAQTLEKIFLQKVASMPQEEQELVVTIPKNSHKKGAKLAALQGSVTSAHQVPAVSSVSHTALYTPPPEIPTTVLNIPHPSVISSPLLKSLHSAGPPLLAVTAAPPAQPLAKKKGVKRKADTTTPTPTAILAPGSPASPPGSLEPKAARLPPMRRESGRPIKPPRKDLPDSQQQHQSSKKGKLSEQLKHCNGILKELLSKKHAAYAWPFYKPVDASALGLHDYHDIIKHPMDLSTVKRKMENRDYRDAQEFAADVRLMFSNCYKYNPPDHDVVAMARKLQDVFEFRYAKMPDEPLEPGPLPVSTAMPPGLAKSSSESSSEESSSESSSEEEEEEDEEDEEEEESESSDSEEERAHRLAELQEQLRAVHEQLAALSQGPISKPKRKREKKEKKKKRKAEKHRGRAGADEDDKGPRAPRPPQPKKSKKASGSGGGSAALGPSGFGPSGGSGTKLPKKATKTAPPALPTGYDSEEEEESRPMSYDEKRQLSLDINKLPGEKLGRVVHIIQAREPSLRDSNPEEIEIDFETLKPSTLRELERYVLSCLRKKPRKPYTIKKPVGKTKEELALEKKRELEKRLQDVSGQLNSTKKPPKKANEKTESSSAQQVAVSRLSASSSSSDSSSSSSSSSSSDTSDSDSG
T5 sequence (Q9H0E9 whole entry): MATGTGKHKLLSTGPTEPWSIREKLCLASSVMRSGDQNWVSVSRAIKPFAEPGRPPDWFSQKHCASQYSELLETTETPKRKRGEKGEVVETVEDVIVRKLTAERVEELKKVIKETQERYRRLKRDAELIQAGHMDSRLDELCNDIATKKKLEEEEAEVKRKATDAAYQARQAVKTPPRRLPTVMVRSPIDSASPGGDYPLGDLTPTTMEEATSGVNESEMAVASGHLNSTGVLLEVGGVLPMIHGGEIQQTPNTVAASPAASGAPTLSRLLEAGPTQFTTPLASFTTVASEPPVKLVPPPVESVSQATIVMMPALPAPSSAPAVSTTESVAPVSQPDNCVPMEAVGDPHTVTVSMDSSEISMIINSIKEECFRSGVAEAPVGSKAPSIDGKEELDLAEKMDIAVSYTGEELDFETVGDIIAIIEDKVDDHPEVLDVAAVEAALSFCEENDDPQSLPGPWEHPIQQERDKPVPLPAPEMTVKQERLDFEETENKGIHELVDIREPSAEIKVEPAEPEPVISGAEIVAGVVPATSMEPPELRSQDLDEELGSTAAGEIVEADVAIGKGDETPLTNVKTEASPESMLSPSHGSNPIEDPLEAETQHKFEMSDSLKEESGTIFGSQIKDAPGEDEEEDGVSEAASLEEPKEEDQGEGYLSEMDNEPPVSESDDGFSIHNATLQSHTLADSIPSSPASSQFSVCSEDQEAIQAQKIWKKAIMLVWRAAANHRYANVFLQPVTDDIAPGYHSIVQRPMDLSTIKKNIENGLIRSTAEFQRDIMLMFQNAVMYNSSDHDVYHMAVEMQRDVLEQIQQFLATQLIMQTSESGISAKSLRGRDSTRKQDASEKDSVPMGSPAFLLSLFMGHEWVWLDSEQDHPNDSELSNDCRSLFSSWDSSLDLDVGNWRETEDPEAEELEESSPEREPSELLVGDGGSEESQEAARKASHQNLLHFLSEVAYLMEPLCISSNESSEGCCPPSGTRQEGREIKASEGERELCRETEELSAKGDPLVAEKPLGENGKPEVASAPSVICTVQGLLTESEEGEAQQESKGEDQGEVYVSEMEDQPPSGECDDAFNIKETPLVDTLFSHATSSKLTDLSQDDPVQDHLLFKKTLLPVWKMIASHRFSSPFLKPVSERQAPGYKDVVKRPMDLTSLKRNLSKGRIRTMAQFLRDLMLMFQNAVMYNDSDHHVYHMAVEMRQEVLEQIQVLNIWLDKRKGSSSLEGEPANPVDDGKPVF
Sequence of Beta-2 adrenergic receptor (P07550 whole entry, looked up): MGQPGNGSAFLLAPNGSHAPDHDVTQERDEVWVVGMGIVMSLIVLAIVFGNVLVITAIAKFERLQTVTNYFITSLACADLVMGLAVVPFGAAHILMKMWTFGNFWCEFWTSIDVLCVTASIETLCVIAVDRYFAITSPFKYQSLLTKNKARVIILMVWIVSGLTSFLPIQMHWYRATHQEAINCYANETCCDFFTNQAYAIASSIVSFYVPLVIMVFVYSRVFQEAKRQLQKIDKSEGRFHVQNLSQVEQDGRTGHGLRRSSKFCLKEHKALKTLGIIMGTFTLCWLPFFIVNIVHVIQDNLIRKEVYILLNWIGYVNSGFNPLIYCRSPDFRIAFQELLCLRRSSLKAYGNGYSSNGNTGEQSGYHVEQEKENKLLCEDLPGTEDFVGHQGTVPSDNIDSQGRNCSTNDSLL
Sequence of C-C motif chemokine 2 (P13500 whole entry): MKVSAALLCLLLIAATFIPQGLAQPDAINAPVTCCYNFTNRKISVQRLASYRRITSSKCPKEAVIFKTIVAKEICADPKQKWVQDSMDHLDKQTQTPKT

CC(=O)Nc1c(F)cc(C(=O)N[C@H]2CC[C@H](O)CC2)cc1O[C@@H](C)c1ccccc1 [GSK046]
0.036 µM: Kd [11]
2.08 µM (not active): Kd [45]
0.1 µM: Kd [2]
4.4: pIC50 [9]
2.08 µM: Kd [26]
> 50.1 µM (not active): IC50 [22]
11 µM (not active): IC50 [44]
30 µM: Kd [5] | Kd [7] | Kd [12] | Kd [15] | Kd [17] | Kd [23] | Kd [25] | Kd [27] | Kd [28] | Kd [31] | Kd [34] | Kd [35] | Kd [38] | Kd [40] | Kd [47] | Kd [48] | Kd [50]
inactive: inhibition [1] 21.4% | inhibition [3] 17.6% | inhibition [4] 11.6% | inhibition [8] 16% | inhibition [10] 39.1% | inhibition [13] 9.38% | inhibition [18] 14% | inhibition [19] 25.8% | inhibition [20] -0.92% | inhibition [21] -6.01% | inhibition [24] 6.84% | inhibition [29] -0.94% | inhibition [33] 20.1% | inhibition [36] -8.96% | inhibition [37] 17.5% | inhibition [39] -0.75% | inhibition [41] 3.77% | inhibition [42] 27.1% | inhibition [43] 3.3% | inhibition [46] -0.86% | inhibition [49] -6.85% | inhibition [51] 28.1% | inhibition [52] 18.1% | inhibition [53] -6.98%
2.45 µM: Kd [32]
0.047 µM: Kd [6]
active: IC50 [14] 0.316 µM | Kd [16] 0.015 µM | IC50 [30] 0.098 µM

Reference: ChEMBL document CHEMBL4630908 (2021)
